From PMC6261607, “Novel high–throughput myofibroblast assays identify agonists with therapeutic potential in pulmonary fibrosis that act via EP2 and EP4 receptors” (PLoS ONE, 2018)
Read-outs that look alike come from different tables or passages of the source.

Assays:
[1] = tested on: α–SMA protein in TGF–β1–induced NHLF myofibroblasts; assay: MS/MS α–SMA, NHLF myofibroblast reversal assay; format: cell-based, human
Experimental: (§1) Cell culture medium was removed and cells were lysed on ice by adding 5 μl / well of pre–cooled protein extraction buffer containing 10 mM Tris–HCl (pH 8.0), 6 M urea and 2 M thiourea and shaking on ice on a plate shaker at 600 rpm for 30 min.
(§2) Cell lysate was transferred to a 96–well polypropylene–PCR–plate. 15 μl / well denaturation buffer (6 M urea, 50 mM ammonium bicarbonate) and 2 μl / well of 50 mM TCEP were added and samples were denatured for 1 h at 60°C using the Veriti 96–well Fast Thermal Cycler System (Applied Biosystem) with a heated lid. Plates were allowed to cool to RT. Subsequently, 2 μl of 100 mM iodoacetamide were added per well to derivatize cysteine residues. Plates were then sealed and vortexed for 2 min in the dark and incubated for 30 min at 37°C in a thermal cycler with a heated lid. 90 μl of 50 mM ammonium bicarbonate pH 7.8 were added, followed by the addition of 10 μl of trypsin at 0.02 μg / ml. Samples were trypsin–digested overnight at 37°C in a thermal cycler with heated lid. […] Samples were desalted under vacuum using an Oasis HLB 96–well (30 μm particle size, 5 mg sorbent / well) reverse phase cartridge according to the manufacturer’s instructions and eluted with 170 μl of 90% acetonitrile, 0.1% formic acid. Samples were dried down with a flow of nitrogen at 40°C, left to cool to RT and re–suspended in 40 μl 5% acetonitrile, 0.1% formic acid on a plate shaker set to 1400 rpm for 5 min. Plates were centrifuged at 4,000 rpm for 10 min and 2 times 12 μl / well of supernatant were transferred into separate 96–well plates (Greiner Bio–One), sealed and stored at 4°C until analyzed by MS / MS.
(§3) Surrogate tryptic peptides were chosen for detection of COL1 (COL1A1), α–SMA (ACTA) and tubulin (TBA1A1) and crude synthetic peptides were purchased from Thermo Fischer. After several rounds of optimization following standard workflows, […] (COL1 / COL1A1), […] (α–SMA / ACTA) and […] LC–MS / MS analysis was performed on a RapidFire™ RF360 system (Agilent Technologies) coupled to an API 5500 (ABSciex) with positive ion electrospray ionization. […] Detection was performed using multiple reaction monitoring (MRM) mode to monitor parent⟶product ion transitions (m / z). […] The source parameters were curtain gas (CUR) nitrogen: 20 psig; collision gas (CAD): 7 psig; ion source gas 1: 50.0 psig; ion source gas 2: 50.0 psig; ion spray voltage (IS): 5500 V; turbo heater temperature (TEM): 600°C; entrance potential (EP): 10V. Peak areas for COL1A1 and ACTA were normalized by dividing by TBA1A peak area.
(§4) To identify compounds with potential to revert differentiated myofibroblasts to fibroblasts the assay procedures were modified. After 24 h starvation, NHLF cells were stimulated with 5 ng / ml TGF–β1 for 24 h. At t = 24 h TGF–β1 was removed and either vehicle (DMSO) or compounds were added and incubated with the cells for a further 72 h.

[2] = tested on: COL1 protein in TGF–β1–induced NHLF myofibroblasts; assay: MS/MS COL1, NHLF myofibroblast reversal assay; format: cell-based, human
Experimental: as §1, §2, §3, §4

[3] = tested on: normal human lung fibroblasts (NHLF); assay: Impedance measurement of TGF–β1–induced myofibroblast transition (IPQA), standard assay; format: cell-based; conditions: 5 ng/ml TGF–β1, compound added with TGF–β1, impedance at t = 20 h post TGF–β1, mean ± SD, read-out: Impedance IC50
Experimental: (§5) To measure dynamic cell shape and adhesion changes during fibrotic transdifferentiation, NHLF were seeded at a density of 20,000 cells per well in FGM–2 growth medium (Lonza) containing 100 units / ml of penicillin and 100 μg / ml of streptomycin into E–plates with continued impedance signal measurement (xCELLigence system, Roche Applied Science). After overnight growth, the medium was exchanged for FBM (Lonza) supplemented with 100 units / ml of penicillin and 100 μg / ml of streptomycin and 0.1% faf BSA and cells were starved for 32 h. Compound dilution series were added and myofibroblast transition was induced by adding TGF–β1 at a concentration of 5 ng / ml, followed by continued impedance sampling for up to 48 h. For data analysis, impedance raw traces were normalized to the time point of compound addition and the baseline response (DMSO, non–TGF–β1 treated cells) was subtracted. In some cases, impedance values at defined time points were used to generate concentration–response curves to determine compound potency and efficacy using GraphPad Prism software version 7 (GraphPad Software Inc).

[4] = tested on: α–SMA protein in NHLF cells; assay: RapidFire MS/MS quantification of α–SMA (IPQA), standard assay; format: cell-based, human; conditions: NHLF, 5 ng/ml TGF–β1, lysed 48 h after TGF–β1, normalized to tubulin, mean ± SD, read-out: MS / MS α–SMA IC50
Experimental: as §1, §2, §3

[5] = tested on: TGF–β1–induced NHLF myofibroblasts; assay: cells; format: cell-based; conditions: reversal assay: 24 h 5 ng/ml TGF–β1, washed, then compound; impedance data at t = 20 h
Experimental: as §5, §4

[6] = tested on: rat lung myofibroblasts (RLMyoF); assay: Impedance in primary myofibroblasts from fibrotic rat lungs; format: cell-based, Wistar rat; conditions: S8 Fig
Experimental: Isolation of fibroblasts from the right middle lung lobe of bleomycin–instilled 20–month old Wistar rats. […] On day 0, rats (n = 3) were anesthetized with isoflurane and instilled intra–tracheally with 315 mg of bleomycin sulfate (Baxter) in a volume of 210 μl followed by 210 μl of air to equally distribute the substance in the lung. On day 28, rats were euthanized using isoflurane (5%), exsanguinated and right lung middle lobes (RML) were collected in a sterile culture dish on ice in Dulbecco's Modified Eagle's Medium (DMEM) / F12 (1:1, Thermo Fisher), minced, washed 3 times with DMEM / F12 medium and digested with 0.1% collagenase (Collagenase II–S: Invitrogen) and 15 μg / ml DNase (DNase I, Sigma) in DMEM / F12 medium in a shaking water bath at 37°C for 15 min. Digests were separated by gravity and the supernatant was transferred to a new vial supplemented with 4 volumes of ice–cold starter medium consisting of DMEM / F12 (1:1), 10% (v / v) fetal bovine serum (PAA), 1% (v / v) penicillin / streptomycin 100 U / 100 μg / ml (Thermo Fisher), and insulin / transferrin / sodium selenite (Thermo Fisher). Then, the cell suspension was passed through a cell strainer by centrifugation at 1600 rpm at 4°C for 10 min. The pelleted cells were resuspended in pre–warmed (37°C) starter medium and seeded in a cell culture dish. After 60 minutes, the medium was replaced by new starter medium. After 24 hours, the medium was exchanged for DMEM / F12 to which 10% (v / v) fetal bovine serum and 1% penicillin / streptomycin was added.

[7] = tested on: normal human lung fibroblasts (NHLF); assay: Nuclear count in the HCA, standard assay; format: cell-based; conditions: standard HCA, NHLF, 5 ng/ml TGF–β1, 48 h; read-out: Nuclear count IC50
Experimental: (§6) The plate was washed 3 times with starvation medium, e.g. fibroblast basal medium (FBM, Lonza) supplemented with 0.1% faf BSA, 100 units / ml of penicillin and 100 μg / ml of streptomycin and 250 ng / ml amphotericin B, and then starved for 24 h in 30 μl volume. NHLF were differentiated into myofibroblasts by incubation with 5 ng / ml TGF–β1 (from a stock of 20 μg / ml in 4 mM HCl, 1 mg / ml BSA) for 48 h. Compounds were prepared as 5x stocks in starvation medium and added to the starved cells to a final 1x concentration concomitant with TGF–β1 addition. The final DMSO concentration in the assay was 0.6% in all wells. 48 h after TGF–β1 addition, the medium was removed and the cells were fixed in methanol for 10 min at room temperature (RT). After fixation, cells were washed 3 times with 1 x PBS and either stored at 4°C for up to 3 days or further processed. […] Images were acquired on the Opera Phenix confocal high–content screening system (Perkin Elmer) using the 20–x water immersion lens.
(§7) DAPI stained nuclei were used to identify cells. α–SMA and FN regions were then identified and mapped to the corresponding nuclei for background correction, cell segmentation and cell feature computation to identify, classify and weigh over 400 features per cell. The computed features (S1 Table) comprise, but are not limited to, granularity, intensity, texture, area, shape and solidity of a cell in both α–SMA–and FN–expressing regions. The 0% compound effect (5 ng / ml TGF–β1) and the 100% compound effect (0 ng / ml TGF–β1) controls, were used to train and validate a support vector machine (SVM), a supervised learning model with associated learning algorithm that, once successfully validated, was applied to every cell in every well of the assayed microtiter plate. The SVM allowed autonomous weighting and classification of the characteristics and thus enabled the classifier to decide which characteristics were most relevant for the differentiation of the cell types. […] The classification of each cell was aggregated to a cell type ratio per well, represented as the computed percentage effect value per well indicative of the degree of myofibroblast differentiation. E.g. 100% equals complete myofibroblast differentiation, 0% indicates a pure fibroblast population without any signs of differentiation.

[8] = tested on: normal human lung fibroblasts (NHLF); assay: Phenotypic high-content assay (HCA) of TGF–β1–induced fibroblast–to–myofibroblast differentiation; format: cell-based; conditions: NHLF, 5 ng/ml TGF–β1 for 48 h, compound added with TGF–β1, mean ± SD, read-out: HCA IC50
Experimental: as §6, §7

[9] = tested on: COL1 protein in NHLF cells; assay: RapidFire MS/MS quantification of COL1 (IPQA), standard assay; format: cell-based, human; conditions: NHLF, 5 ng/ml TGF–β1, lysed 48 h after TGF–β1, normalized to tubulin, mean ± SD, read-out: MS / MS COL1 IC50
Experimental: as §1, §2, §3

| Compound | IC50 [3] [µM] | IC50 [4] [µM] | IC50 [8] [µM] | IC50 [9] [µM] | IC50 ([3]; Fibroblast) [µM] | IC50 ([4]; Homo sapiens) [µM] | IC50 ([8]; Homo sapiens, Fibroblast, 48 h) [µM] | IC50 ([9]; Homo sapiens, Col1) [µM] | also measured |
| --- | --- | --- | --- | --- | --- | --- | --- | --- | --- |
| C=C[C@@]1(C)CC(=O)[C@]2(O)[C@@]3(C)[C@@H](O)CCC(C)(C)[C@@H]3[C@H](O)[C@H](OC(C)=O)[C@@]2(C)O1 [Forskolin] | – | – | – | – | – | – | – | – | IC50 ([1]; Homo sapiens, NHLF pre–stimulated 24 h with 5 ng/ml TGF–β1, representative experiment, S7 Fig D, read-out: IC50, reversal of α–SMA (curve of a single experiment)): 5.12 µM; IC50 ([2]; Homo sapiens, Col1, NHLF pre–stimulated 24 h with 5 ng/ml TGF–β1, representative experiment, S7 Fig E, read-out: IC50, reversal of COL1 (curve of a single experiment)): 1.73 µM |
| CCn1c(-c2nonc2N)nc2cnc(Oc3cccc(NC(=O)c4ccc(OCCN5CCOCC5)cc4)c3)cc21 [GSK–269962] | 1.01 | 0.022 ± 0.001 | 0.24 ± 0.27 | 3.1 | – | – | – | – | IC50 ([1]; reversal assay: 24 h 5 ng/ml TGF–β1, washed, 72 h compound, normalized to tubulin, read-out: MS / MS α–SMA IC50): 0.035 µM; IC50 ([2]; reversal assay: 24 h 5 ng/ml TGF–β1, washed, 72 h compound, normalized to tubulin, read-out: MS / MS COL1 IC50): 0.537 µM; IC50 [5]: > 10 µM; IC50 ([6]; read-out: RLMyoF impedance IC50 (3 h), impedance at 3 h): 0.011 µM; IC50 ([6]; read-out: RLMyoF impedance IC50 (20 h), impedance at 20 h): 0.133 µM; IC50 [7]: > 50 µM |
| O=C1c2ccc(Nc3ccc(F)cc3F)cc2CCc2ccc(OC[C@H](O)CO)cc21 [L–skepinone] | – | – | – | – | 5 | 0.96 ± 0.44 | 23 | – | IC50 ([9]; Homo sapiens, Col1, 48 h): 1.5 µM |
| COc1cccc(-c2cc(=O)c3ccccc3o2)c1N [PD98059] | 19 | 50 | > 46 | > 50 | – | – | – | – | – |
| Cn1c(=O)c(Oc2ccc(F)cc2F)cc2cnc(NC(CCO)CCO)nc21 [Pamapimod] | – | – | – | – | 19 | 34 | > 46 | > 50 | – |
| O=C(NCc1cccc(O)c1)Nc1nc(-c2ccncc2)cs1 [RKI 1447] | 8.4 | 0.15 ± 0.022 | 4.3 | 12.2 | – | – | – | – | – |
| Cc1cccc(-c2[nH]c(C(C)(C)C)nc2-c2ccc3nccnc3c2)n1 [SB525334] | 0.12 ± 0.025 | 0.09 ± 0.005 | 2.5 | 0.38 ± 0.11 | – | – | – | – | – |
| Oc1c2ccccc2c2c3c(cccc13)N=N2 [SP600125] | – | – | – | – | 48.5 | 38 | > 46 | 36 | – |
| CC[C@@H](C(=O)[C@@H](C)[C@@H](O)[C@H](C)[C@@H]1O[C@@H]([C@@H](CC)C(=O)O)CC[C@@H]1C)[C@H]1O[C@]2(C=C[C@@H](O)[C@]3(CC[C@@](C)([C@H]4CC[C@](O)(CC)[C@H](C)O4)O3)O2)[C@H](C)C[C@@H]1C [Salinomycin] | – | – | – | – | 1.5 | 0.29 ± 0.3 | – | 1.2 | IC50 ([8]; Homo sapiens, Fibroblast): 15.8 µM |
| CCOc1cc(N2CCC(O)CC2)ccc1Nc1ncc2c(n1)N(C)c1ccccc1C(=O)N2C [XMD 8–92] | 4.4 | 2.4 | 12 | 5.4 | – | – | – | – | – |
